Assay in all cases: inhibition of tumour cell growth, NCI panel, 48 h
Test [1] has as its system A549 NSCLC.
Test [2] has as its system CAKI-1 renal.
Test [3] has as its system COLO 205 colon.
Test [4] has as its system HOP-92 NSCLC.
For test [5], the system named is IGROV1 ovarian.
The subject of test [6] is MALME-3M melanoma.
Test [7] has as its system SF-268 CNS.
Test [8] deals with SK-MEL-5 melanoma.
The subject of test [9] is HCT-15 colon.
The subject of test [10] is RPMI-8226 leukemia.

Values joined by “and” are separate entries in the source; they are usually repeats but may differ in a detail not shown here. Equal values may be shown once.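 These data come from cells grown in 96-well plates and exposed to compound for 48 hours at five concentrations. At the GI50, growth is halved. TGI is the concentration that stops growth completely.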

As for `O=S1CSCS1` (configuration not stated), the TGI in test [1], in test [2], in [3], in test [4], in test [5] and in test [6] was above 100 µM throughout. Besides, the TGI in [7] and in test [8] was above 100 µM throughout.

`CC(=O)OCCOCNC(=S)N/N=C/c1ccc2ccccc2n1`: the TGI in test [1] is above 100 µM; in test [3], 46.6 µM; in test [9] it was above 100 µM; in test [5] it was above 100 µM; in test [6], above 100 µM; in test [10], above 100 µM. In addition, the figures for the TGI in test [7] and in test [8] were above 100 µM and 60.8 µM, respectively.

For the compound `CNC(=S)N/N=C1\CC(c2ccccc2)Oc2ccccc21` (configuration not stated), the TGI in [1], in test [2], in [3], in test [4], in test [5] and in test [6] was above 100 µM in each case. The TGI in test [7] and in test [8] was above 100 µM throughout.

`C/C=C(\C)c1cc(=O)c2c(C)cc3c(c2o1)C(=O)c1c(O)c(C2CC(C)(N(C)C)C(O)C(C)O2)cc(C2CC(N(C)C)C(O)C(C)O2)c1C3=O` (configuration not stated): the GI50 in [1] was 0.153 µM; in test [2], 273 nM and 2080 nM; in test [9] it was 0.42 µM and 3.22 µM; in test [7], 134 nM and 632 nM. In addition, the TGI in [1] was 1.66 µM; in test [2] it was 5.99 µM; in test [3], 4.09 µM and 20.1 µM; in [9], 5.15 µM and 24.4 µM; in test [5] it was 3.2 µM and > 27.6 µM; in test [7] it was 0.738 µM and 4.52 µM.

Regarding `Cc1ccc(C2CC(c3ccc([N+](=O)[O-])cc3)=Nc3ccccc3S2)cc1` (configuration not stated), the TGI in test [1] was above 100 µM; in test [2], above 100 µM; in [3] it was above 100 µM; in test [9], 46.2 µM; in test [5], 87.5 µM; in [6], above 100 µM. The TGI in [10] was 44.9 µM; in test [7], above 100 µM; in test [8] it was 38 µM.

As to `O=C(O)C1CCc2nnc(-c3ccccc3)n21` (configuration not stated), the TGI in test [1], in [2], in test [3], in [9], in [5] and in test [6] was above 100 µM each time. Also, the TGI in test [10], in test [7] and in test [8] was above 100 µM throughout.

On to `COc1ccc(CN2C(=O)C(Cc3cc(OC)c(OC)c(C)c3OC)NC(=O)/C2=C/c2cc(OC)c(OC)c(C)c2OC)cc1` (configuration not stated), for which the TGI in test [1] is above 100 µM; in test [3], 47.4 µM; in test [4], 67.7 µM; in test [5] it was above 100 µM; in [6], 67.8 µM; in [10] it was 70.2 µM. Also, the TGI in test [7] is above 100 µM; in [8], 34.5 µM.

Regarding `[N-]=[N+]=Nc1ccc(CCN2CCN(c3cccc(C(F)(F)F)c3)CC2)cc1I`, the TGI is above 100 µM in test [1]; above 100 µM in test [2]; above 100 µM in test [3]; above 100 µM in test [9]; above 100 µM in [6]; 69.4 µM in test [10]. Besides, the TGI in test [7] and in test [8] was above 100 µM each time.

Regarding `O=C1c2ccccc2C(=O)C2C1C1C(=O)c3ccccc3C(=O)C21` (configuration not stated), the TGI in test [1], in test [2], in test [3], in test [9], in test [4] and in test [5] was above 100 µM throughout. Besides, the TGI in test [6], in test [7] and in test [8] was above 100 µM each time.

Turning to `CC(N=C(N)N)C(=O)O` (configuration not stated), the TGI in test [1], in test [2], in test [3], in test [9], in test [5] and in test [6] was above 100 µM each time. For the same compound, the TGI in [10], in [7] and in test [8] was above 100 µM throughout.

As for `O=C(Cc1nc2ccccc2c(=O)n1-c1c(Cl)cccc1Cl)c1ccncc1`, the TGI in test [1] was 46.9 µM; in test [2] it was 86.1 µM; in test [3] it was 33.6 µM; in [9], above 100 µM; in test [4], 69.8 µM; in [5] it was 49.7 µM. Further, the TGI was 56.2 µM in test [6], above 100 µM in [7] and 29.4 µM in [8].

Turning to `NC(N)=NS(=O)(=O)c1ccc(Nc2c3ccccc3nc3c(C(=O)N4CCN(CCO)CC4)cccc23)cc1`, the TGI in test [1], in test [2], in test [3], in test [9], in [4] and in test [5] was above 100 µM each time. Further, the TGI in [6], in test [7] and in [8] was above 100 µM each time.

In the case of `CC1=CC[C@@H]2C(C)(C)C(=O)CC[C@@]2(C)[C@@H]1COc1ccc2ccc(=O)oc2c1`, the GI50 is 10.9 µM in [1]; 9500 nM in test [2]; 10.6 µM in test [3]; 13.4 µM in test [9]; 27.4 µM in test [4]; 16.2 µM in test [5]. Also, the GI50 is 14400 nM in test [6], 23300 nM in [7] and 4 µM in test [8]. The TGI in test [1] was 71.2 µM; in test [2] it was 80.8 µM; in test [3], 39.4 µM; in test [9] it was 56.4 µM; in test [4], above 100 µM; in test [5], 55.1 µM. The figures for the TGI in [6], in test [7] and in test [8] were 38.9 µM, above 100 µM and 14.2 µM, respectively.

In the case of `COc1cc(=O)oc(/C=C/C=O)c1C`, the TGI in [1] was above 100 µM; in test [2] it was 79.9 µM; in [3] it was 31.6 µM; in test [4] it was 53.4 µM; in test [5] it was above 100 µM; in test [6], 39.4 µM. Moreover, the TGI in [7] was determined as 28.2 µM; in test [8], 38.4 µM.

As to `COc1cc2c(c(OC)c1OC)C(=O)CC(c1cccc(NC(=O)c3ccc(Br)cc3)c1)O2` (configuration not stated), the GI50 is 3.57 µM in [1]; 2250 nM in [2]; 3.17 µM in test [3]; 2.31 µM in [9]; 3.05 µM in test [5]; 1470 nM in test [6]. Also, the figures for the GI50 in test [10], in test [7] and in [8] were 1440 nM, 2570 nM and 1.62 µM, respectively. Moreover, the TGI was above 100 µM in test [1]; above 100 µM in test [2]; above 100 µM in [3]; above 100 µM in [9]; above 100 µM in [5]; 7.39 µM in test [6]. The TGI in test [10] is 3.93 µM; in test [7], above 100 µM; in test [8], 3.32 µM.

Turning to `COc1cc([N+](=O)[O-])c(S(=O)(=O)O)cc1NS(=O)(=O)c1ccc(C)cc1`, the TGI in test [1], in test [2], in test [3], in [9], in [5] and in test [10] was above 100 µM throughout. Further, the TGI in test [7] and in test [8] was above 100 µM throughout.

Consider `CN(C)c1ccc2c(c1)CN1C(=O)c3ccccc3C1=N2`, for which the GI50 was above 100 µM in [1]; above 100 µM in [3]; above 100 µM in test [9]; above 100 µM in [4]; above 100 µM in [5]; above 100000 nM in test [6]. For the same compound, the values for the GI50 in test [10] and in test [8] were above 100000 nM and above 100 µM, respectively. Further, the TGI in test [1], in test [3], in [9], in [4], in [5] and in test [6] was above 100 µM in each case. Besides, the TGI in test [10] and in [8] was above 100 µM in each case.

Take `CC1(C)OC(=O)[C@@](C)([C@H](O)c2ccccc2)O1`: the TGI in test [1], in test [2], in [4], in test [5], in [6] and in test [7] was above 100 µM in each case. In [8], this compound showed a TGI above 100 µM.

For the compound `O=[N+]([O-])c1cc([N+](=O)[O-])c(Cl)c(Cl)c1Cl`, the GI50 is 3.16 µM in test [1]; 0.616 µM in test [3]; 1.68 µM in [4]; 1.23 µM in [5]; 1700 nM in test [6]; 1540 nM in [10]. The GI50 is 1730 nM in [7] and 1.75 µM in [8]. Further, the TGI in test [1] came out at 13.9 µM; in test [3] it was 2.03 µM; in [4], 3.15 µM; in [5], 7.25 µM; in [6], 3.77 µM; in [10], 5.01 µM. In addition, the TGI in test [7] is 3.92 µM; in test [8] it was 3.35 µM.

Regarding `NC(=O)c1cc(-c2ccncc2)cc(-c2ccccc2)c1N`, the GI50 in test [1] is above 23.2 µM; in test [2], 8340 nM; in [3] it was 22.1 µM; in test [9] it was 19 µM; in test [5] it was 9.48 µM; in test [6], above 25000 nM. Also, the GI50 in [10] was 11600 nM; in [7], above 25000 nM; in test [8], 14.7 µM. The TGI in test [1], in test [2], in test [3], in test [9], in test [5] and in test [6] was above 25 µM in each case. The TGI in test [10], in test [7] and in [8] was above 25 µM in each case.

For the compound `COc1ccc(Cl)cc1Nc1nc(C(F)(F)F)ccc1C(=O)N/N=C/c1ccc([N+](=O)[O-])cc1`, the GI50 in test [1] is 3.41 µM; in test [2], 1460 nM; in test [3], 1.65 µM; in [9] it was 1.29 µM; in test [5] it was 2.56 µM; in test [6] it was 2300 nM. In addition, the results for the GI50 in test [10], in [7] and in test [8] were 1600 nM, 1690 nM and 1.98 µM, respectively. For the same compound, the TGI in [1] was 52.7 µM; in [2], 4.74 µM; in [3], 3.58 µM; in test [9] it was 5.11 µM; in test [5] it was 6.49 µM; in test [6], 5.59 µM. Further, the TGI in [10] came to 6.55 µM; in [7], 5.8 µM; in test [8] it was 4.86 µM.

With `CCOC(=O)c1cc(/C=C/C(C)=C/C(=O)OC)oc1-c1ccccc1`, the TGI in [1], in test [2], in test [3], in test [9], in [5] and in test [6] was above 100 µM throughout. Besides, the TGI in [10], in test [7] and in [8] was above 100 µM throughout.

Take `CCOC(=O)C1=C(C)NC2SC(=O)/C(=C\c3ccccc3Cl)N2C1c1ccccc1` (configuration not stated): the GI50 in test [1] was above 100 µM; in test [2] it was above 100000 nM; in [3], above 100 µM; in test [9] it was above 100 µM; in test [4], above 100 µM; in [5], above 100 µM. The GI50 in test [10] is 79700 nM; in test [7], above 100000 nM; in test [8], 50.2 µM. Also, the TGI in test [1], in [2], in test [3], in test [9], in test [4] and in test [5] was above 100 µM throughout. The TGI in test [10], in [7] and in test [8] was above 100 µM throughout.

Take `C[C@@H](C1CCC2C3C(=CC(=O)[C@@]21C)[C@H](C)[C@]1(CCC(=O)O1)C1OC31)[C@H]1C[C@]2(C)O[C@@](C)(O1)OC2(C)C` (some centres not stated): the TGI in [1], in test [2], in test [3], in test [9], in [4] and in [5] was above 100 µM in each case. The TGI in [10], in [7] and in test [8] was above 100 µM each time.

(Values after PubChem BioAssay (NCI).)
